Source: PMC9920246, “Entinostat-Bortezomib Hybrids against Multiple Myeloma” (Molecules, 2023)
Like-named read-outs stand apart in the source and are kept apart here.

Legend:
RPMI 8226 cells = experiment: Antiproliferative assay (XTT, 72 h); format: cell-based, human; details: for IC50: RPMI 8226 cells, 72 h, XTT, mean ± SD, n = 3
RPMI 8226/BTZ100 cells = experiment: cells; format: cell-based, human; details: for IC50: read-out: IC50 Value Antiproliferative Activity RPMI 8226/BTZ100
[1] = test system: 3D co-culture spheroids containing RPMI 8226 cells and mesenchymal stem cells (MSC) in a 5:1 ratio; experiment: Antiproliferative assay in 3D co-culture spheroids (CellTiter-Glo 3D, 48 h); format: cell-based, human; details: RPMI 8226 + MSC 5:1 spheroids, mean ± SD, n = 3
Experimental: The multiple myeloma human plasma cells RPMI 8226 were purchased from American Type Culture Collection (ATCC, Manassas, VA, USA) and cultured in RPMI 1640 medium (Gibco, Paisley, UK) supplemented with 50 µg/mL streptomycin sulfate, 50 U/mL penicillin G sodium salt (Gibco, Grand Island, NY, USA) and 10% fetal bovine serum (FBS) (Biowest, Nuaillé, France). […] Human MSC from the bone marrow were purchased from PromoCell and were cultured in Mesenchymal Stem Cell Growth Medium 2 (PromoCell, Heidelberg, Germany) supplemented with 100 μg/mL streptomycin sulfate and 100 U/mL penicillin G sodium salt.
RPMI 8226 cells and MSC were mixed in a 5:1 ratio. The cell mixture was centrifuged, and medium containing 20% collagen I (Gibco) adjusted to pH 7 was added to the cell pellet. Five μL drops were plated in each well of an ice-cold 96-well ultra-low attachment U-bottom plate (Corning, Kennebunk, MA, USA) and the plate was incubated for 30 min at 37 °C and 5% CO2 atmosphere. After the incubation, 200 μL of RPMI 1640 medium (Gibco) supplemented with 50 µg/mL streptomycin sulfate, 50 U/mL penicillin G sodium salt (Gibco) and 10% FBS (Biowest) was added to each well. The 3D spheroids were formed after 48 h.
RPMI 8226 and RPMI 8226/BTZ100 cells were seeded in 96-well plates (Costar, Kennebunk, MA, USA) at a density of 15,000 cells per well and directly treated for 72 h with the various compounds using increasing concentrations (0.31–2000 nM). […] Following the treatment, 100 μL of medium was carefully removed from each well and collagenase (1.5 μL of a 100 mg/mL solution, Sigma) was added. The plate was shaken at 37 °C for 10 min at 350 rpm. Then, 100 μL of CellTiter-Glo 3D reagent (Promega, Fitchburg, WI, USA) was added to each well. The plate was incubated for 5 min at 37 °C under agitation at 250 rpm, followed by 25 min at room temperature without agitation. Finally, the luminescence was measured using a Cytation 3 plate reader (BioTek). The percentage of cell proliferation and calculation of the IC50 value were determined as previously described. Each compound was tested in triplicate in three independent experiments.

[2] = Drug combination of Ent and BTZ, antiproliferative effect (Combenefit, CompuSyn); format: cell-based; details: read-out: IC50 in drug combination experiment
Experimental: Combinations were evaluated using Combenefit data analysis.
Statistical analysis was performed in GraphPad Prism 9 (GraphPad) using one-way ANOVA for the proteasome inhibition assay. Combenefit (Cancer Research UK Cambridge Institute, Cambridge, UK) and CompuSyn software were used for drug combination analyses. The CI was calculated through the Chou-Talalay method using Compusyn. Data are expressed as mean ± standard deviation (SD).

26S proteasome = target: T1, 26S proteasome (Homo sapiens, UniProt P28074); experiment: Proteasome inhibitory activity (Suc-LLVY-amc) in RPMI 8226 cell lysate; format: biochemical
T1 sequence (P28074 60-263): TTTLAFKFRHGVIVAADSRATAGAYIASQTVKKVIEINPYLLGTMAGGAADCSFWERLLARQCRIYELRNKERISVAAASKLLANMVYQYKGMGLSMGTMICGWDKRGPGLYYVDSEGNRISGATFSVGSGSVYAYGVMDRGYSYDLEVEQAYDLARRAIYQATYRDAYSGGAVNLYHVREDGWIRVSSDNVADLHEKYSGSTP
Experimental: RPMI 8226 cells (1 × 10^6 cells/mL) were collected, centrifuged, and washed twice with cold PBS (Gibco). The supernatant was discarded, and 200 μL of ice-cold lysis buffer (NP40 cell lysis buffer (Invitrogen, Eugene, OR, USA), supplemented with 1 mM PMSF (Sigma) and protease inhibitor cocktail (Sigma), was added to the pellet. Cells were kept on ice for 30 min and vortexed every 10 min. Samples were then centrifuged at 4 °C for 10 min at 16,000× g. Supernatant containing the proteins was collected. Protein quantification was performed using the Coomassie (Bradford) Protein Assay Kit (ThermoFisher, Waltham, MA, USA) following the manufacturer instructions. In each well of a 96-well black plate (ThermoFisher), 10 µg of proteins were mixed with assay buffer (50 mM Tris-HCl, pH 7.5, 40 mM KCl, 5 mM MgCl2, 0.5 mM ATP, 1 mM DTT, 0.5 mg/mL BSA) in 180 µL total volume. […] The plate was then incubated for 30 min at 37 °C. After incubation, the reaction was started by adding the fluorometric peptide substrate Suc-LLVY-amc (Bio-Techne, Minneapolis, MN, USA) at a final concentration of 100 µM, except for the blank wells. Following 1 h incubation at 37 °C in the dark, the fluorescence signal was red (excitation: 380 nm, emission: 440–460 nm) using a Cytation 3 plate reader (BioTek). The percentage of 26S proteasome activity was measured by comparing the fluorescence of the sample treated with the vehicle control wells and multiplied by 100. The IC50 value was calculated as mentioned above, and each compound was tested in triplicate in three independent experiments.

HDAC = HDAC inhibitory activity in RPMI 8226 cells (MAL substrate, UHPLC-MS); format: cell-based, human; details: 10 µM, 8 h
Experimental: RPMI 8226 cells were seeded in 96-well plates (Costar) at a density of 15,000 cells per well in 25 µL of medium containing the HDAC substrate N-(4-methyl-7-aminocoumarinyl)-Nα-(t-butoxycarbonyl)-Nω-acetyllysineamide (21 µM, MAL, Sigma). The cells were directly treated with the compounds at 10 µM or with Ent (0.4–250 µM) for 8 h to obtain a final volume of 50 µL. […] Following the incubation, the reaction was stopped by adding 10 µL of 6X RIPA buffer, supplemented with protease inhibitor (Sigma). Then, 160 µL of cold acetonitrile were added and the plate was placed for 10 min at −80 °C. The plate was centrifuged at 5000× g for 10 min at 4 °C, and the supernatant was transferred into a UHPLC-adapted 96-well plate (Nunc 96-well plate conical bottom, ThermoFisher) and sealed. The substrate (MAL) and its deacetylated product (dMAL) were measured using a UHPLC-MS method as previously described. The percentage of HDAC inhibition is given by 100 − [(tested sample × 100/control sample)], and the dose-response curve of Ent was established.

Row | Structure (SMILES) | IC50 (RPMI 8226 cells; Homo sapiens) | Increased resistance (RPMI 8226/BTZ100 vs. RPMI 8226) (RPMI 8226/BTZ100 cells) | IC50 (RPMI 8226/BTZ100 cells; Homo sapiens, RPMI-8226, 72 h) | IC50 ([1]; Homo sapiens) | IC50 [2] | IC50 (26S proteasome; 26S proteasome in RPMI 8226 cell lysate, 30 min preincubation, Suc-LLVY-amc 100 µM, mean ± SD, n = 3; read-out: IC50 Value PI Activity) | Inhibition of HDAC activity (HDAC) | IC50 (RPMI 8226 cells) | Fold less active than compound 3 in RPMI 8226 cells (RPMI 8226 cells; compared to compound 3) | IC50 (26S proteasome; read-out: IC50 Value PI Activity; 26S proteasome in RPMI 8226 cell lysate, 30 min preincubation, Suc-LLVY-amc 100 µM, mean ± SD, n = 3) | IC50 (RPMI 8226/BTZ100 cells; RPMI 8226 cells resistant to BTZ, 72 h, XTT, mean ± SD, n = 3) | IC50 [1]
1 | CC(C)C[C@H](NC(=O)[C@H](Cc1ccccc1)NC(=O)c1cnccn1)B(O)O [BTZ, bortezomib] | 2.1 ± 0.4 nM | 116.8 fold | 245 ± 11.1 nM | 6.4 ± 1.6 nM | 3.3 nM |  |  |  |  |  |  | 
2 | CC(C)C[C@H](NC(=O)[C@@H](Cc1ccccc1)NC(=O)Cc1ccc(C(=O)Nc2ccc(F)cc2N)cc1)B1OC2CC3CC(C3(C)C)[C@@]2(C)O1 (stereo partly drawn) [Compound 7, N-(2-amino-4-fluorophenyl)-4-(2-(((2R)-1-(((1R)-3-methyl-1-((3aR)-3a,5,5-trimethyl-hexahydro-4,6-methanobenzo[d][1,3,2]dioxaborol-2-yl)butyl)amino)-1-oxo-3-phenylpropan-2-yl)amino)-2-oxoethyl)benzamide] | 31.4 ± 1.7 nM |  | 831 ± 139 nM | 89.3 ± 13.6 nM |  | 7.2 ± 1.7 nM | 37% |  |  |  |  | 
3 | CC(C)C[C@H](NC(=O)[C@@H](Cc1ccc(N(CCCl)CCCl)cc1)NC(=O)c1cnc(C(=O)Nc2ccccc2N)cn1)B1OC2CC3CC(C3(C)C)[C@]2(C)O1 (stereo partly drawn) [Compound 11, N^2-(2-aminophenyl)-N^5-((2R)-3-(4-(bis(2-chloroethyl)amino)phenyl)-1-(((1R)-3-methyl-1-((3aS)-3a,5,5-trimethylhexahydro-4,6-methanobenzo[d][1,3,2]dioxaborol-2-yl)butyl)amino)-1-oxopropan-2-yl)pyrazine-2,5-dicarboxamide] |  |  |  |  |  |  | 25% | 22.9 ± 2.6 nM | ~2.4 times | > 50 nM | 462 ± 107 nM | 39.9 ± 12.1 nM
